Source: patent US12605370B2, “Agents and compositions for the treatment of glioblastoma” (University of Cincinnati, priority 2020, dated 2026)

How the values were obtained:
Type in all cases: cell-based
[1] = system: PTEN-expressing glioblastoma cells; test: Cell viability in PTEN-expressing glioblastoma cells (cabozantinib comparison)
Procedure: (§1) Glioblastoma cells were treated to produce two populations: PTEN-expressing and PTEN-deficient. These cells were then treated with either vehicle control, LY2584702, variable concentrations of cabozantinib, or a combination of LY2584702 and variable concentrations of cabozantinib. Cabozantinib is a small molecule inhibitor of RTKs, including TAM receptors. Cell viability was measured after culturing with the inhibitors.

[2] = system: PTEN-expressing U-PTEN U87MG cells; test: Cell viability (CytoTox Glo) in PTEN-expressing U-PTEN U87MG glioblastoma cells; settings: U-PTEN U87MG (doxycycline-induced PTEN), serum-free, 72 hours
Procedure: (§2) FIG. 2 depicts a dose curve analysis showing the efficacy of the combination of LY2584702 with merestinib in PTEN-deficient U87MG glioblastoma cells. Viability was measured using CytoTox Glo after culturing with inhibitors in serum-free conditions for 72 hours. Doxycycline addition induced PTEN and protected cells from the cytotoxic effect of combination drug treatment.
(§3) U87MG glioblastoma cells were treated with doxycycline to induce PTEN expression (U-PTEN), while a separate set of U87 glioblastoma cells were treated with a similar amount of vector (U-vector). Thus, the U-vector cells were PTEN-deficient. These cells were then treated with either vehicle control, 10 μM LY2584702, 0.1-20 μM merestinib, or a combination of 10 μM LY2584702 and 0.1-20 μM merestinib. Cell viability was measured using CytoTox Glo after culturing with inhibitors in serum-free conditions for 72 hours.

[3] = system: PTEN-deficient glioblastoma cells; test: Cell viability in PTEN-deficient glioblastoma cells (cabozantinib comparison)
Procedure: as §1

[4] = system: PTEN-deficient U-vector U87MG glioblastoma cells; test: Cell viability (CytoTox Glo) in PTEN-deficient U-vector U87MG glioblastoma cells; settings: serum-free, 72 hours
Procedure: as §2, §3

shNT LN229 cells = test: Cell viability (CytoTox Glo) in non-targeting shNT LN229 glioblastoma cells; settings: serum-free, 72 hours
Procedure: (§4) LN229 glioblastoma cells were transduced with either short hairpin RNA (shRNA) lentiviral particles coding for non-targeting shRNA (shNT) or shRNA that targets PTEN mRNA (shPTEN) for inhibition and degradation. These cells were then treated with either vehicle control, 10 μM LY2584702, 0.1-20 μM merestinib, or a combination of 10 μM LY2584702 and 0.1-20 μM merestinib. Cell viability was measured using CytoTox Glo after culturing with inhibitors in serum-free conditions for 72 hours.

[5] = system: shPTEN LN229 glioblastoma cells; test: Cell viability (CytoTox Glo) in PTEN-deficient shPTEN LN229 glioblastoma cells; settings: serum-free, 72 hours
Procedure: FIG. 1 depicts a dose curve analysis showing the efficacy of the combination of LY2584702 with merestinib in shPTEN LN229 glioblastoma cells. Viability was measured using CytoTox Glo after culturing with inhibitors in serum-free conditions for 72 hours.
as §4

[6] = variable concentrations of cabozantinib alone

Measured: cytotoxicity (cell viability)

Cn1cc(-c2ccc(F)c(C(F)(F)F)c2)nc1C1CCN(c2ncnc3[nH]ncc23)CC1 [LY2584702]
not cytotoxic: [1]; LY2584702 alone | [2]; 10 μM LY2584702 alone | [3]; LY2584702 alone | [4]; 10 μM LY2584702 alone | shNT LN229 cells; 10 μM LY2584702 alone | [5]; 10 μM LY2584702 alone

COc1cc2nccc(Oc3ccc(NC(=O)C4(C(=O)Nc5ccc(F)cc5)CC4)cc3)c2cc1OC [cabozantinib]
not cytotoxic: [1]; [6] | [3]; [6]

Cc1ccc(C(=O)Nc2ccc(Oc3cc4cnn(C)c4cc3-c3cn[nH]c3)c(F)c2)c(=O)n1-c1ccc(F)cc1 [merestinib]
not cytotoxic: [2]; 0.1-20 μM merestinib alone | [4]; 0.1-20 μM merestinib alone | shNT LN229 cells; 0.1-20 μM merestinib alone | [5]; 0.1-20 μM merestinib alone
